The source of these data is patent US20260335341A1, “METHODS FOR TREATING PAEDIATRIC NEUROLOGICAL DISORDERS” (Neurotech International Limited, priority 2022, published 2026).

The structures appear in SMILES notation. Values joined by “and” are separate entries in the source; they are usually repeats but may differ in a detail not shown here. Equal entries are not always repeated. Where two headings read alike, the source gives them in different places.

The subject of data set [1] is excitotoxic cell injury paradigm. In words: Cell death in an excitotoxic cell injury paradigm. Format: cell-based, human. On the procedure: Neuronal viability was quantified using MTT [3-(4,5-dimethylthiazol-2-yl-)-2,5-diphenyl-2H-tetrazolium bromide; Sigma]. […] Cellular excitotoxicity was achieved via glutamate activation (3 mM).
Data set [2] relates to COX-2. As to the kind of experiment: COX-2 expression, immunohistochemistry, human derived microglial cells (Example 4). Type of data set: cell-based. As to conditions: 2 μg/ml, N = 9. On the procedure: (§1) Immunohistochemistry (Protein Level) Assay: Cells were fixed for 10 min with 4% paraformaldehyde (PFA) in PBS. After 3×5 minutes washing with PBS, cells were incubated with primary antibodies (anti-COX2) 1:1000 overnight at 4 °C, and after 3×5 minutes washing in PBS, cells were then incubated in appropriate fluorescent secondary antibody 1:250 (Invitrogen) for 2 hours at room temperature. After a final wash, as previous, cells nuclei were sained with DAPI in the mounting media. Photomicrographs were taken of the cells in three fields of view per well from duplicate wells and analysed using Fiji for area coverage of each marker.
(§2) The tubes are then placed in a sonication bath for 10 mins at 35-40 C. Upon completion of the sonication samples are then placed in a tray shaker (200 rpm) for 30 minutes at room temperature. Once completed the samples are then centrifuged at 4400 rpm for 5 minutes. The supernatant is collected for testing and development.
(§3) For the CBD sample, a pure standard (in powder form) was used. CBD 98% isolate was purchased as a reference standard from LGC Standards (London UK) (CAS No. 13956-29-1). The CBD standard reference was prepared at concentration of 1 mg/ml (in acetonitrile). CBD dilutions were made in acetonitrile as follows: 2 μg/ml; 6 μg/ml; and 0.1 μg/ml.

Another data set concerns IL-12. In words: IL-12 level in microglial media, multiplex cytokine assay (Example 4). Format: cell-based, human. To be noted: 2 μg/ml; interleukin and interferon activation; control 99.91. On the procedure: (§4) Multiplex Cytokine/Chemokine Assay: Microglia media harvested following treatment initiation was centrifuged briefly to remove particulates (300 g for 10 min). Cytokine and chemokine levels in the microglial media were measured using a Bio-Plex 200 with a 96-well magnetic plate assay according to the manufacturer's instructions (Bio-Rad). Cytokines and chemokines measured included IL-1α, IL-1β, IL-2, IL-6, IL-10, IL-12 (p70), IL-13, G-CSF, GM-CSF, IFNγ, TNFα, CXCL1 (KC), CCL2 (MCP-1), and CCL5 (RANTES). All samples were run in duplicate and data were analyzed with the Bio-Plex Manager software.
as §2, §3

The test system of the next data set is TNF-alpha. As to the kind of experiment: TNF-alpha level in microglial media, multiplex cytokine assay (Example 4). Format: cell-based, human. As to conditions: 2 μg/ml; interleukin and interferon activation. On the procedure: as §4, §2, §3
Data set [3] has as its system COX-2. As to the kind of experiment: COX-2 activity, immunohistochemistry, human derived microglial cells, diclofenac combination (Example 6). Type of data set: cell-based. As to conditions: 2 μg/ml each, I&I inflammation activation, N = 9. Set-up: unit not given here. As for the experimental part:
as §1, with “Human derived microglial cells” for “Immunohistochemistry (Protein Level) Assay: Cells”
COX-2 is measured using the immunohistochemistry assay—as described above. […] In the treatment groups, these cells are also treated with various treatments and COX-2 expression is then assessed following these treatments (1 hr after treatment).
In this example, ethanol extraction was used. […] The tubes are then placed in a sonication bath for 10 mins at 35-40 C. Upon completion of the sonication samples are then placed in a tray shaker (200 rpm) for 30 minutes at room temperature. Once completed the samples are then centrifuged at 4400 rpm for 5 minutes. The supernatant is collected for testing and development.
For the CBD sample, a pure standard (in powder form) was used. CBD 98% isolate was purchased as a reference standard from LGC Standards (London UK) (CAS No. 13956-29-1). […]

For a further data set, the system named is human microglial cells. In words: DAPI cell viability stain (Example 4). Format: cell-based.
Data set [4] concerns cannabinoid receptor type 1 (CB1). To be noted: cited from earlier work.
Data set [5] concerns cannabinoid receptor type 2 (CB2). As to conditions: cited from earlier work.
The subject of the next data set is neutrophil. To be noted: cited from earlier work.
For data set [6] the following is noted: animals; cited from earlier work.
Data set [7] in a line: Stability of NTI164 oil formulation at room temperature (UPLC).
The test system of data set [8] is TNF-a. As to the kind of experiment: TNF-a, prednisone combination (Example 8). Type of data set: cell-based. To be noted: PDN 5 uM; NTI164 7.5 ug/ml; combination PDN 5 uM + NTI164 7.5 ug/ml; activated control 45. The text has this:
(§5) Student's t-test was used for statistical analysis.

Data set [9] deals with IL-6. In words: IL-6, prednisone combination (Example 8). Format: cell-based. To be noted: PDN 5 uM; NTI164 7.5 ug/ml; combination PDN 5 uM + NTI164 7.5 ug/ml; activated control 366.33.
Source text: as §5

Data set [10] deals with IL-1a. As to the kind of experiment: IL-1a, prednisone combination (Example 8). Type of data set: cell-based. As to conditions: PDN 5 uM; NTI164 7.5 ug/ml; combination PDN 5 uM + NTI164 7.5 ug/ml; activated control 154.83.
Source text: as §5

The test system of data set [11] is GM-CSF. In words: GM-CSF, prednisone combination (Example 8). Type of data set: cell-based. To be noted: PDN 5 uM; NTI164 7.5 ug/ml; combination PDN 5 uM + NTI164 7.5 ug/ml; activated control 768.13.
Source text: as §5

The test system of data set [12] is TNF-a. As to the kind of experiment: TNF-a release from BV2 microglia, celecoxib combination (Example 7). Format: cell-based. As to conditions: Celebrex 5 uM; NTI164 7.5 uM (as headed); combination Celebrex 5 uM + NTI164 7.5 ug/ml; activated control 45. On the procedure:
(§6) The immortalized microglia cell line, BV2, was purchased from the American Tissue Culture Collection. BV2 were cultured in RPMI media containing gentamycin and supplemented with 10% fetal bovine serum (FBS) for expansion and 5% FBS when plated for experiments. All cells were from between passage numbers 39 and 45. Cells were plated at […] and treated 24 hours after plating with phosphate buffered saline (PBS, as a control) or interleurkin-1B+interferon-γ (IL-1B+IFNγ, to induce inflammation).
(§7) Microglia media harvested following treatment initiation was centrifuged briefly to remove particulates (300 g for 10 min). Cytokine and chemokine levels in the microglial media were measured using a Bio-Plex 200 with a 96-well magnetic plate assay according to the manufacturer's instructions (Bio-Rad). Cytokines and chemokines measured included IL-1α, IL-1β, IL-2, IL-6, IL-10, IL-12 (p70), IL-13, G-CSF, GM-CSF, IFNγ, TNFα, CXCL1 (KC), CCL2 (MCP-1), and CCL5 (RANTES). All samples were run in duplicate that were averaged for analysis, at least three samples per group were run.

The test system of data set [13] is IL-6. As to the kind of experiment: IL-6 release from BV2 microglia, celecoxib combination (Example 7). Format: cell-based. To be noted: Celebrex 5 uM; NTI164 7.5 uM (as headed); combination Celebrex 5 uM + NTI164 7.5 ug/ml; activated control 366.33. As for the experimental part:
as §6, §7

Data set [14] relates to IL-1a. As to the kind of experiment: IL-1a release from BV2 microglia, celecoxib combination (Example 7). Type of data set: cell-based. As to conditions: Celebrex 5 uM; NTI164 7.5 uM (as headed); combination Celebrex 5 uM + NTI164 7.5 ug/ml; activated control 154.83. On the procedure: as §6, §7
In data set [15] the test system is GM-CSF. In words: GM-CSF release from BV2 microglia, celecoxib combination (Example 7). To be noted: Celebrex 5 uM; NTI164 7.5 uM (as headed); combination Celebrex 5 uM + NTI164 7.5 ug/ml; activated control 768.13. Type of data set: cell-based. As for the experimental part: as §6, §7
Setting [16] is: in vitro, at low concentrations.

Turning to `C=C(C)[C@@H]1CCC(C)=C[C@H]1c1c(O)cc(CCCCC)cc1O` [CBD, Cannabidiol], the “Toxicity / effect on cell number and cell viability” value in data set [1] is reported as “toxic in this paradigm”. Moreover, in the data set on COX-2 [2] (exposure 1 hour after inflammatory insult (interleukin and interferon gamma), control 104.26), the “COX-2 expression, average +/- SEM, exposure after inflammatory insult” value is listed as 76.32 +/− 7.95 (SEM). Besides, in the data set on COX-2 [2] (exposure 1 hour prior to inflammatory insult (interleukin and interferon gamma), control 94.47), the “COX-2 expression, average +/- SEM, exposure before inflammatory insult” value is listed as 84.82 +/− 7.65 (SEM). The “IL-12, average +/- SD” value with IL-12 is given as 84.40 +/− 6.54. Moreover, the “TNF-alpha, average +/- SD” value in the data set on TNF-alpha is listed as 71.13 +/− 12.81. The “COX-2 activity, individual replicate” value in the data set with COX-2 [3] (1 hr after treatment) is 42.4 and 44.92 and 109.99 and 136.99 and 117.84 and 43.14 and 77.81 and 59.02 and 73.8. Moreover, the “COX-2 activity, mean” value with COX-2 [3] (activated control mean 101.39) is 78.43. Also, the “Cell death by DAPI cell viability stain” value with human microglial cells was “DAPI cell viability stain: No cell death was detected and assessed as per the DAPI cell staining method”. For the same compound, the “Allosteric modulation of CB1” value in data set [4] is on record as “negative allosteric modulator of CB1”; in [4] (listed as Cannabidiol), “negative allosteric modulator of the cannabinoid CB1 receptor”. Besides, in data set [4] (compared to Δ9-THC), the “Affinity for CB1” value is reported as “low affinity”. For the same compound, the CB1 antagonistic effect entry in [4] (setting [16]) is “weak CB1 and CB2 antagonistic effect”. For the same compound, the “Affinity for CB2” value in data set [5] (compared to Δ9-THC) was “low affinity”. The CB2 antagonistic effect result in data set [5] (setting [16]) is “weak CB1 and CB2 antagonistic effect”. Also, in the data set with neutrophil, the “Neutrophil chemotaxis and proliferation” value was “inhibit neutrophil chemotaxis and proliferation”. Further, the Oral bioavailability in [6] is 13-19%. Moreover, in data set [7], the “Cannabinoid content of NTI164, Day 14” value was determined as 0.56 mg/mL. In addition, the “Cannabinoid content of NTI164, Day 0” value in data set [7] (NTI164 oil, room temperature, Day 0) came out at 0.46 mg/mL. In addition, the “Cannabinoid content of NTI164, Day 2” value in [7] (NTI164 oil, room temperature, Day 2) came out at 0.56 mg/mL. For the same compound, the “Cannabinoid content of NTI164, Day 7” value in data set [7] (NTI164 oil, room temperature, Day 7) is recorded as 0.53 mg/mL. Also, in data set [7] (NTI164 oil, room temperature, Day 28), the “Cannabinoid content of NTI164, Day 28” value was 0.54 mg/mL. Besides, in data set [7] (NTI164 oil, room temperature, Week 5), the “Cannabinoid content of NTI164, Week 5” value is recorded as 0.60 mg/mL. In addition, in [7] (NTI164 oil, room temperature, Week 6), the “Cannabinoid content of NTI164, Week 6” value came out at 0.51 mg/mL. For the same compound, the “Cannabinoid content of NTI164, Week 32” value in [7] (NTI164 oil, room temperature, Week 32) is listed as 0.48 mg/mL.

For the compound `C[C@]12C=CC(=O)C=C1CC[C@@H]1[C@@H]2C(=O)C[C@@]2(C)[C@H]1CC[C@]2(O)C(=O)CO` [PDN, Prednisone], the TNF-a in the data set on TNF-a [8] amounted to 30.17. In addition, in the data set on IL-6 [9], the IL-6 is 228.50. Moreover, the IL-1a with IL-1a [10] is reported as 144.5. In the data set on GM-CSF [11], the GM-CSF amounted to 611.97.

For `Cc1ccc(-c2cc(C(F)(F)F)nn2-c2ccc(S(N)(=O)=O)cc2)cc1` [Celebrex, celecoxib], the TNF-a in the data set with TNF-a [12] was found to be 30.17. For the same compound, in the data set with IL-6 [13], the IL-6 came out at 128.50. Besides, the IL-1a in the data set with IL-1a [14] was found to be 112.5. In addition, the GM-CSF in the data set on GM-CSF [15] is 511.97.
